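96-well plates; 48 h exposure; 5 concentrations. Endpoints by linear interpolation between flanking doses. Not reached: highest tested concentration assigned. The concentration for full growth arrest is given as TGI.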
Columns and labels:
Experiment in all cases: NCI tumour cell line growth inhibition, 48 h
UACC-62 melanoma = test system: UACC-62 melanoma
HT29 colon = test system: HT29 colon
MDA-MB-231 breast = test system: MDA-MB-231 breast
MDA-N = test system: MDA-N
SK-MEL-2 melanoma = test system: SK-MEL-2 melanoma
SNB-75 CNS = test system: SNB-75 CNS
SK-MEL-28 melanoma = test system: SK-MEL-28 melanoma
SN12C renal = test system: SN12C renal
HCT-116 colon = test system: HCT-116 colon
TK-10 renal = test system: TK-10 renal
U251 CNS = test system: U251 CNS
ACHN renal = test system: ACHN renal
KM12 colon = test system: KM12 colon
HL-60(TB) leukemia = test system: HL-60(TB) leukemia
EKVX NSCLC = test system: EKVX NSCLC
OVCAR-3 ovarian = test system: OVCAR-3 ovarian
MDA-MB-435 = test system: MDA-MB-435
SW-620 colon = test system: SW-620 colon
SK-OV-3 ovarian = test system: SK-OV-3 ovarian
HCT-15 colon = test system: HCT-15 colon
M14 melanoma = test system: M14 melanoma
NCI-H23 lung = test system: NCI-H23 lung
UACC-257 melanoma = test system: UACC-257 melanoma
PC-3 prostate = test system: PC-3 prostate
OVCAR-5 ovarian = test system: OVCAR-5 ovarian
SK-MEL-5 melanoma = test system: SK-MEL-5 melanoma
DU-145 prostate = test system: DU-145 prostate
A549 NSCLC = test system: A549 NSCLC
OVCAR-4 ovarian = test system: OVCAR-4 ovarian
LOX IMVI melanoma = test system: LOX IMVI melanoma
HS 578T breast = test system: HS 578T breast
NCI-H226 lung = test system: NCI-H226 lung
COLO 205 colon = test system: COLO 205 colon
NCI/ADR-RES ovarian = test system: NCI/ADR-RES ovarian
CCRF-CEM leukemia = test system: CCRF-CEM leukemia
HOP-62 NSCLC = test system: HOP-62 NSCLC
K-562 leukemia = test system: K-562 leukemia
IGROV1 ovarian = test system: IGROV1 ovarian
NCI-H522 lung = test system: NCI-H522 lung
CAKI-1 renal = test system: CAKI-1 renal
UO-31 renal = test system: UO-31 renal
MOLT-4 leukemia = test system: MOLT-4 leukemia
T-47D breast = test system: T-47D breast
OVCAR-8 ovarian = test system: OVCAR-8 ovarian
SF-295 CNS = test system: SF-295 CNS
RPMI-8226 leukemia = test system: RPMI-8226 leukemia
SF-268 CNS = test system: SF-268 CNS
SNB-19 CNS = test system: SNB-19 CNS
A498 renal = test system: A498 renal
SR leukemia = test system: SR leukemia
MALME-3M melanoma = test system: MALME-3M melanoma
RXF 393 renal = test system: RXF 393 renal
786-0 renal = test system: 786-0 renal
BT-549 breast = test system: BT-549 breast
SF-539 CNS = test system: SF-539 CNS
MCF7 breast = test system: MCF7 breast
NCI-H460 lung = test system: NCI-H460 lung
HCC-2998 colon = test system: HCC-2998 colon
HOP-92 NSCLC = test system: HOP-92 NSCLC

Oc1ccc2ccccc2c1N=Nc1ccc(N=Nc2ccccc2)cc1
TGI (UACC-62 melanoma): > 100 µM | TGI (HT29 colon): > 100 µM | TGI (MDA-MB-231 breast): > 100 µM | TGI (MDA-N): > 100 µM | TGI (SK-MEL-2 melanoma): > 100 µM | TGI (SNB-75 CNS): > 100 µM | TGI (SK-MEL-28 melanoma): > 100 µM | TGI (SN12C renal): > 100 µM | TGI (HCT-116 colon): > 100 µM | TGI (TK-10 renal): > 100 µM | TGI (U251 CNS): > 100 µM | TGI (ACHN renal): > 100 µM | TGI (KM12 colon): > 100 µM | TGI (HL-60(TB) leukemia): 12 µM | TGI (EKVX NSCLC): > 100 µM | TGI (OVCAR-3 ovarian): > 100 µM | TGI (MDA-MB-435): > 100 µM | TGI (SW-620 colon): > 100 µM | TGI (SK-OV-3 ovarian): > 100 µM | TGI (HCT-15 colon): > 100 µM | TGI (M14 melanoma): > 100 µM | TGI (NCI-H23 lung): > 100 µM | TGI (UACC-257 melanoma): > 100 µM | TGI (PC-3 prostate): > 100 µM | TGI (OVCAR-5 ovarian): > 100 µM | TGI (SK-MEL-5 melanoma): > 100 µM | TGI (DU-145 prostate): > 100 µM | TGI (A549 NSCLC): > 100 µM | TGI (OVCAR-4 ovarian): > 100 µM | TGI (LOX IMVI melanoma): > 100 µM | TGI (HS 578T breast): > 100 µM | TGI (NCI-H226 lung): > 100 µM | TGI (COLO 205 colon): > 100 µM | TGI (NCI/ADR-RES ovarian): > 100 µM | TGI (CCRF-CEM leukemia): > 100 µM | TGI (HOP-62 NSCLC): > 100 µM | TGI (K-562 leukemia): > 100 µM | TGI (IGROV1 ovarian): > 100 µM | TGI (NCI-H522 lung): > 100 µM | TGI (CAKI-1 renal): > 100 µM | TGI (UO-31 renal): > 100 µM | TGI (MOLT-4 leukemia): > 100 µM | TGI (T-47D breast): > 100 µM | TGI (OVCAR-8 ovarian): > 100 µM | TGI (SF-295 CNS): > 100 µM | TGI (RPMI-8226 leukemia): > 100 µM | TGI (SF-268 CNS): > 100 µM | TGI (SNB-19 CNS): > 100 µM | TGI (A498 renal): > 100 µM | TGI (SR leukemia): 88.2 µM | TGI (MALME-3M melanoma): > 100 µM | TGI (RXF 393 renal): > 100 µM | TGI (786-0 renal): > 100 µM | TGI (BT-549 breast): > 100 µM

c1ccc(N=C2SC(c3ccccc3)CN2C23CC4CC(CC(C4)C2)C3)cc1 (stereo not given)
TGI (HT29 colon): > 100 µM | TGI (MDA-MB-231 breast): > 100 µM | TGI (MDA-N): > 100 µM | TGI (SK-MEL-2 melanoma): > 100 µM | TGI (SNB-75 CNS): > 100 µM | TGI (SK-MEL-28 melanoma): > 100 µM | TGI (SN12C renal): > 100 µM | TGI (HCT-116 colon): > 100 µM | TGI (TK-10 renal): > 100 µM | TGI (U251 CNS): > 100 µM | TGI (ACHN renal): > 100 µM | TGI (SF-539 CNS): > 100 µM | TGI (KM12 colon): > 100 µM | TGI (HL-60(TB) leukemia): > 100 µM | TGI (EKVX NSCLC): > 100 µM | TGI (OVCAR-3 ovarian): > 100 µM | TGI (MDA-MB-435): > 100 µM | TGI (SW-620 colon): > 100 µM | TGI (MCF7 breast): > 100 µM | TGI (HCT-15 colon): > 100 µM | TGI (M14 melanoma): > 100 µM | TGI (NCI-H23 lung): > 100 µM | TGI (UACC-257 melanoma): > 100 µM | TGI (PC-3 prostate): > 100 µM | TGI (OVCAR-5 ovarian): > 100 µM | TGI (SK-MEL-5 melanoma): > 100 µM | TGI (DU-145 prostate): > 100 µM | TGI (A549 NSCLC): > 100 µM | TGI (OVCAR-4 ovarian): > 100 µM | TGI (LOX IMVI melanoma): > 100 µM | TGI (HS 578T breast): > 100 µM | TGI (NCI-H226 lung): > 100 µM | TGI (COLO 205 colon): > 100 µM | TGI (NCI/ADR-RES ovarian): > 100 µM | TGI (CCRF-CEM leukemia): > 100 µM | TGI (HOP-62 NSCLC): > 100 µM | TGI (K-562 leukemia): > 100 µM | TGI (IGROV1 ovarian): > 100 µM | TGI (NCI-H522 lung): > 100 µM | TGI (CAKI-1 renal): > 100 µM | TGI (UO-31 renal): > 100 µM | TGI (MOLT-4 leukemia): > 100 µM | TGI (OVCAR-8 ovarian): > 100 µM | TGI (SF-295 CNS): > 100 µM | TGI (NCI-H460 lung): > 100 µM | TGI (RPMI-8226 leukemia): > 100 µM | TGI (SF-268 CNS): > 100 µM | TGI (SNB-19 CNS): > 100 µM | TGI (A498 renal): > 100 µM | TGI (SR leukemia): > 100 µM | TGI (MALME-3M melanoma): > 100 µM | TGI (RXF 393 renal): > 100 µM | TGI (786-0 renal): > 100 µM | TGI (HCC-2998 colon): > 100 µM | TGI (BT-549 breast): > 100 µM | TGI (HOP-92 NSCLC): > 100 µM

From PubChem BioAssay (NCI)
